These are literature values, as cited in US20240350409A1, “TRANSDERMAL DELIVERY FORMULATIONS AND METHODS FOR THE MANUFACTURE THEREOF” (LifeActive, Inc., priority 2023, published 2024).

The conditions of this data set: in H2O at ~15-20° C.; weak organic acids.

Turning to Maleic Acid, the pKa2 is 6.07. On to Citric Acid, for which the pKa3 is recorded as 6.40.
